Measurements: the supplement of paper PMC10307832

Experiments:
Assay in all cases: relative viability (nuclei count vs DMSO), 5 days (fraction); higher = more cells survive
Doramapimod + Navitoclax = compound: Cc1ccc(-n2nc(C(C)(C)C)cc2NC(=O)Nc2ccc(OCCN3CCOCC3)c3ccccc23)cc1 [Doramapimod] + CC1(C)CCC(c2ccc(Cl)cc2)=C(CN2CCN(c3ccc(C(=O)NS(=O)(=O)c4ccc(N[C@H](CCN5CCOCC5)CSc5ccccc5)c(S(=O)(=O)C(F)(F)F)c4)cc3)CC2)C1 [Navitoclax] (partner 0.5 µM)
Procedure, shortened: (§1)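 Relative viability divides the nuclei count in treated wells by that in vehicle wells. Lung cancer cell lines were seeded in 1536-well plates, dosed by pin tool the next day, and fixed and stained after 5 days in one step with final 0.05% Triton X-100, 1% formaldehyde and 1 ug/ml Hoechst. Dosing was a single drug or a fixed anchor-drug dose plus five library-drug doses (not always all listed) in √10 steps, and values are medians of duplicate plates imaged at 4×.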

RAF265 + Palbociclib = compound: Cn1c(Nc2ccc(C(F)(F)F)cc2)nc2cc(Oc3ccnc(-c4ncc(C(F)(F)F)[nH]4)c3)ccc21 [RAF265] + CC(=O)c1c(C)c2cnc(Nc3ccc(N4CCNCC4)cn3)nc2n(C2CCCC2)c1=O [Palbociclib] (partner 0.5 µM)
Procedure, shortened: as §1

RAF265 + Luminespib = compound: Cn1c(Nc2ccc(C(F)(F)F)cc2)nc2cc(Oc3ccnc(-c4ncc(C(F)(F)F)[nH]4)c3)ccc21 [RAF265] + CCNC(=O)c1noc(-c2cc(C(C)C)c(O)cc2O)c1-c1ccc(CN2CCOCC2)cc1 [Luminespib] (partner 0.01 µM)
Procedure, shortened: as §1

RAF265 + Lapatinib = compound: Cn1c(Nc2ccc(C(F)(F)F)cc2)nc2cc(Oc3ccnc(-c4ncc(C(F)(F)F)[nH]4)c3)ccc21 [RAF265] + CS(=O)(=O)CCNCc1ccc(-c2ccc3ncnc(Nc4ccc(OCc5cccc(F)c5)c(Cl)c4)c3c2)o1 [Lapatinib] (partner 2 µM)
Procedure, shortened: as §1

| Cell Line | relative viability (Doramapimod + Navitoclax; first compound 0.02 µM) | relative viability (Doramapimod + Navitoclax; first compound 0.06325 µM) | relative viability (Doramapimod + Navitoclax; first compound 0.2 µM) | relative viability (Doramapimod + Navitoclax; first compound 0.6325 µM) | relative viability (Doramapimod + Navitoclax; first compound 2 µM) | relative viability (RAF265 + Palbociclib; first compound 0.01 µM) | relative viability (RAF265 + Palbociclib; first compound 0.03162 µM) | relative viability (RAF265 + Palbociclib; first compound 0.1 µM) | relative viability (RAF265 + Palbociclib; first compound 0.3162 µM) | relative viability (RAF265 + Palbociclib; first compound 1 µM) | relative viability (RAF265 + Luminespib; first compound 0.01 µM) | relative viability (RAF265 + Luminespib; first compound 0.03162 µM) | relative viability (RAF265 + Luminespib; first compound 0.1 µM) | relative viability (RAF265 + Luminespib; first compound 0.3162 µM) | relative viability (RAF265 + Luminespib; first compound 1 µM) | relative viability (RAF265 + Lapatinib; first compound 0.01 µM) | relative viability (RAF265 + Lapatinib; first compound 0.03162 µM) | relative viability (RAF265 + Lapatinib; first compound 0.1 µM) | relative viability (RAF265 + Lapatinib; first compound 0.3162 µM) | relative viability (RAF265 + Lapatinib; first compound 1 µM) |
| --- | --- | --- | --- | --- | --- | --- | --- | --- | --- | --- | --- | --- | --- | --- | --- | --- | --- | --- | --- | --- |
| NCI-H2405 | 0.901 | 0.831 | 0.812 | 1.33 | 0.804 | 0.552 | 0.497 | 0.499 | 0.491 | 0.282 | 0.638 | 0.812 | 0.722 | 0.476 | 0.548 | 1.09 | 1.08 | 0.924 | 0.999 | 0.607 |
| NCI-H3122 | 1.03 | 0.992 | 1 | 1.09 | 0.914 | 0.18 | 0.216 | 0.19 | 0.198 | 0.19 | 0.0828 | 0.0692 | 0.0932 | 0.0953 | 0.0538 | 1.04 | 1.11 | 1.07 | 0.953 | 0.98 |
| PC-3 [JPC-3] | 0.923 | 0.767 | 0.737 | 0.869 | 0.723 | 0.55 | 0.538 | 0.524 | 0.437 | 0.429 | 0.667 | 0.654 | 0.713 | – | 0.386 | 0.423 | 0.471 | 0.475 | 0.38 | 0.36 |
| PC-14 | 1.02 | 1.02 | 0.935 | 1.09 | 0.799 | 0.47 | 0.495 | 0.519 | – | 0.35 | 0.163 | 0.128 | 0.248 | – | 0.139 | 0.339 | 0.331 | 0.403 | – | 0.383 |
| RERF-LC-KJ | 1.09 | 1.35 | 0.858 | 0.853 | 1.01 | 1.06 | 1.23 | 1.05 | 0.885 | 0.832 | 1.34 | 1.22 | 1.08 | 0.763 | 0.713 | 0.837 | 0.776 | 0.827 | 0.784 | 0.679 |
| SK-LU-1 | 0.544 | 1 | 0.821 | 1.01 | 0.7 | 0.399 | 0.342 | 0.33 | 0.318 | 0.251 | 0.203 | 0.182 | 0.177 | 0.185 | 0.176 | 0.685 | 0.669 | 0.669 | 0.61 | 0.34 |
| SK-MES-1 | 1.16 | 1.25 | 1.23 | 1.25 | 0.99 | 0.291 | 0.233 | 0.241 | 0.252 | 0.204 | 0.726 | 0.414 | 0.33 | 0.228 | 0.191 | 0.468 | 0.449 | 0.366 | 0.349 | 0.269 |
| SW 1573 | 1.11 | 0.83 | 1.05 | 0.78 | 0.789 | 0.419 | 0.328 | 0.312 | 0.245 | 0.215 | 0.571 | 0.179 | 0.161 | 0.131 | 0.149 | 1.15 | 1.18 | 1.18 | 1.04 | 0.824 |
